These compounds were tested against T1, acetylcholine muscarinic M1 receptor (Homo sapiens, UniProt P11229) (assay: muscarinic FLIPR calcium assay, M1 positive allosteric modulation). Conditions: CHOnfat/hM1 cells, FLIPR intracellular Ca2+, 4 min preincubation, then EC20 acetylcholine (3 nM final); read-out: IP Value (inflection point).
T1 construct: expressed in transfected cells; host or cells: CHOnfat cells (CHOnfat/hM1; geneticin selection)
T1 sequence (P11229 1-460): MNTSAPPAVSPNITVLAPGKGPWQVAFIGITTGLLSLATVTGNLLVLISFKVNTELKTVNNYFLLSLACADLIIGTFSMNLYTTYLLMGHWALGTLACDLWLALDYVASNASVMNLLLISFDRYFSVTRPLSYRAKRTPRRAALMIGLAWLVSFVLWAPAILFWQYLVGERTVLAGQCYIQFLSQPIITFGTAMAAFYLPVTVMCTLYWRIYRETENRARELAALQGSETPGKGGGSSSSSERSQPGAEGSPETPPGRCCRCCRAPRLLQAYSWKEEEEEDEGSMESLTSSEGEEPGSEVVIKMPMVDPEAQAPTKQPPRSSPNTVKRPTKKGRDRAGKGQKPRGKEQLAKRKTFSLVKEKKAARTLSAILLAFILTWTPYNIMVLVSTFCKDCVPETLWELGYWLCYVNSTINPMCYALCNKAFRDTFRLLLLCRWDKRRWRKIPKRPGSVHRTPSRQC
Format: cell-based
Procedure: The assay studies the effect of one or several concentrations of test compounds on basal or acetylcholine-stimulated Ca^2+ levels using FLIPR.
Compounds are prepared and subjected to a preincubation period of 4 min. Thereafter, a single EC20 concentration of acetylcholine is added to each well (3 nM final). The intracellular Ca^2+ level of each sample is measured and compared to an acetylcholine control to determine any modulatory activity.
Cells: CHOnfat/hM1, hM2, hM3 or hM4 cells are plated 24 hr before the assay at a density of 18,000 cells/well (100 μL) in a 384 well plate. CHOnfat/hM1 and CHOnfat/hM3 Growth Medium: 90% DMEM (Hi Glucose); 10% HI FBS; 2 mM L-glutamine; 0.1 mM NEAA; Pen-Strep; and 1 mg/ml Geneticin, are added. For M2Gqi5CHOnfat and M4Gqi5CHOnfat cells, an additional 600 ug/ml hygromycin is added.
Equipment: 384 well plate, 120 μL addition plate; 96-well Whatman 2 ml Uniplate Incubator, 37° C., 5% CO2; Skatron EMBLA-384 Plate Washer; Multimek Pipetting System; Genesis Freedom 200 System; Mosquito System; Temo Nanoliter Pipetting System; and FLIPR^384 Fluorometric Imaging Plate Reader System are used.
Buffers. Assay Buffer: Hanks Balanced Salt Solution, with 20 mM Hepes, 2.5 mM Probenecid (Sigma P-8761) first dissolved in 1 N NaOH, 1% Bovine Serum Albumin (Sigma A-9647). Dye Loading Buffer: Assay Buffer plus 1% Fetal Bovine Serum and Fluo-4AM/Pluronic Acid Mixture. 2 mM Fluo-4AM ester stock in DMSO (Molecular Probes F-14202) Concentration of 2 μM in buffer for a final concentration of 1 μM in Assay. 20% Pluronic Acid Solution stock, with concentration of 0.04% in Buffer, 0.02% in Assay.
65 μL of 2 mM Fluo-4AM are mixed with 130 μL of 20% Pluronic Acid. The resulting solution and 650 μL FBS is added to the assay buffer for a total volume of 65 mL. Positive Controls: 4-Br-A23187: 10 mM in DMSO; final concentration 10 μM. Acetylcholine: 10 mM in water, working stock at both 20 μM and 30 µM in assay buffer, final concentration of 10 μM. This is used to check the maximum stimulation of the CHOK1/hM1 cells. 20 μM (2×) acetylcholine is added in the preincubation part of the assay, and the 30 μM (3×) stock is added in the second part. (EC20)Acetylcholine: 10 mM in water, working stock of 9 nM (3×), and final concentration in assay is 3 nM. This is used after the preincubation with test compounds. Addition of the EC20 Acetylcholine to each well with a test compound will ascertain any modulator activity. 24 wells contain 3 nM Acetylcholine alone as a control.
Determining Activity of Putative Compounds: • Screening Plate: Compounds are titrated in 96-well plates (columns 2-11), 100% DMSO, started at a concentration of 15 mM (150× stock concentration), and 3-fold serial dilutions using Genesis Freedom200 System. Four 96-well plates are combined into a 384-well plate using Mosquito Nanoliter Pipetting System by transferring 1 μl of serial diluted compounds to each well, and 1 mM acetylcholine (100× stock concentration) were added as a control. Using Temo, 49 μl assay buffer is added to each well of the 384-well plate right before assay.
In a 96-well Whatman 2 ml Uniplate, 9 nM Acetylcholine (3×) is pipetted into wells corresponding to the screening compounds, and into control wells. The 30 μM acetylcholine control (3×) is added into control wells, and the 3× agonist plate is transferred into a 384 well plate.
Cells are washed three times with 100 μL of buffer, leaving 30 μL of buffer in each well. Using Multimek, 30 μL of Dye Loading Buffer is added into each well and incubated at 37° C., 5% CO2 for up to one hr.
After 60 min, the cells are washed three times with 100 μL of buffer, leaving 30 μL of buffer in each well. The cell plate, screening plate, and agonist addition plates are placed on the platform in the FLIPR and the door closed. A signal test to check background fluorescence and basal fluorescence signal is performed. Laser intensity is adjusted if necessary. […]

In order of falling EC50:
1. Cc1cc(Cc2cc3c(=O)n([C@H]4COCC[C@@H]4O)cnc3c3cccnc23)ccn1 [Example 14, 3-[(3S,4S)-4-Hydroxytetrahydro-2H-pyran-3-yl]-6-[(2-methylpyridin-4-yl)methyl]pyrido[2,3-h]quinazolin-4(3H)-one]  851 nM
2. O=c1c2cc(Cc3ccc(Cl)nc3)c3cnccc3c2ncn1[C@H]1CCOC[C@@H]1O [Example 2, 6-[(6-Chloropyridin-3-yl)methyl]-3-[(3R,4S)-3-hydroxytetrahydro-2H-pyran-4-yl]pyrido[3,4-h]quinazolin-4(3H)-one]  176 nM
3. CCC(O)c1ccc(Cc2cc3c(=O)n([C@H]4CCCC[C@@H]4O)cnc3c3ccncc23)cc1 (stereo partly drawn) [Example 12, 3-[(1S,2S)-2-Hydroxycyclohexyl]-6-[4-(1-hydroxypropyl)benzyl]pyrido[3,4-h]quinazolin-4(3H)-one]  130 nM
4. COc1ccc(Cc2cc3c(=O)n([C@H]4CCCC[C@@H]4O)cnc3c3ccncc23)cn1 [Example 5, 3-[(1S,2S)-2-Hydroxycyclohexyl]-6-[(6-methoxypyridin-3-yl)methyl]pyrido[3,4-h]quinazolin-4(3H)-one]  110 nM
5. CC(O)c1ccc(Cc2cc3c(=O)n([C@H]4CCCC[C@@H]4O)cnc3c3ccncc23)cc1 (stereo partly drawn) [Example 11, 3-[(1S,2S)-2-Hydroxycyclohexyl]-6-[4-(1-hydroxyethyl)benzyl]pyrido[3,4-h]quinazolin-4(3H)-one]  92 nM
6. O=c1c2cc(Cc3ccc(N4CCOCC4)cc3)c3cnccc3c2ncn1[C@H]1CCCC[C@@H]1O [Example 13, 3-[(1S,2S)-2-Hydroxycyclohexyl]-6-(4-morpholin-4-ylbenzyl)pyrido[3,4-h]quinazolin-4(3H)-one]  91 nM
7. CSc1ccc(Cc2cc3c(=O)n([C@H]4CCCC[C@@H]4O)cnc3c3ccncc23)cn1 [Example 6, 3-[(1S,2S)-2-Hydroxycyclohexyl]-6-{[6-(methylthio)pyridine-3-yl]methyl}pyrido[3,4-h]quinazolin-4(3H)-one]  71 nM
8. O=c1c2cc(Cc3ccc(-c4cnccn4)nc3)c3cnccc3c2ncn1[C@H]1CCCC[C@@H]1O [Example 9, 3-[(1S,2S)-2-Hydroxycyclohexyl]-6-[(6-pyrazin-2-ylpyridin-3-yl)methyl]pyrido[3,4-h]quinazolin-4(3H)-one]  64 nM
9. Cc1ccc(Cc2cc3c(=O)n([C@H]4CCCC[C@@H]4O)cnc3c3ccncc23)cn1 [Example 4, 3-[(1S,2S)-2-Hydroxycyclohexyl]-6-[(6-methylpyridin-3-yl)methyl]pyrido[3,4-h]quinazolin-4(3H)-one]  41 nM
10. O=c1c2cc(Cc3ccc(Cl)nc3)c3cnccc3c2ncn1[C@H]1CCCC[C@@H]1O [Example 1, 6-[(6-Chloropyridin-3-yl)methyl]-3-[(1S,2S)-2-hydroxycyclohexyl]pyrido[3,4-h]quinazolin-4(3H)-one]  38 nM
11. O=Cc1ccc(Cc2cc3c(=O)n([C@H]4CCCC[C@@H]4O)cnc3c3ccncc23)cc1 [Example 10, 4-({3-[(1S,2S)-2-Hydroxycyclohexyl]-4-oxo-3,4-dihydropyrido[3,4-h]quinazolin-6-yl}methyl)benzaldehyde]  36 nM
12. O=c1c2cc(Cc3ccc(-n4cccn4)nc3)c3ncccc3c2ncn1[C@H]1CCCC[C@@H]1O [Example 7, 3-[(1S,2S)-2-Hydroxycyclohexyl]-6-{[6-(1H-pyrazol-1-yl)pyridine-3-yl]methyl}pyrido[2,3-h]quinazolin-4(3H)-one]  29 nM
13. Cn1cc(-c2ccc(Cc3cc4c(=O)n([C@H]5CCCC[C@@H]5O)cnc4c4ccncc34)cn2)cn1 [Example 8, 3-[(1S,2S)-2-Hydroxycyclohexyl]-6-{[6-(1-methyl-1H-pyrazol-4-yl)pyridine-3-yl]methyl}pyrido[3,4-h]quinazolin-4(3H)-one]  6 nM

Source: patent US8664387B2, “Pyridoquinazolinone M1 receptor positive allosteric modulators” (Merck Sharp & Dohme Corp., priority 2009, dated 2014)
